# Measurements taken from patent publication US7595345B2, “Vitamin D receptor modulators” (Eli Lilly and Company, priority 2003, dated 2009).
# Assays:
# [1] = system: IL-10 production in PBMCs; assay: Human IL-10 induction assay; assay type: cell-based; details: PBMC; TPA/PHA treated human PBMCs, IL-10 in supernatant by immunoassay
# Source text: 6. The IL-10 Induction Assay
# This is an in vitro efficacy assay for psoriasis, abscess and adhesion. Psoriasis involves both keratinocytes and immune cells. IL-10 is a unique cytokine because it is anti-inflammatory and immunosuppressive. This assay tells us whether a VDRM is able to function as an agonist in PBMCs (primary blood mononuclear cells) or not. A lower EC50 value is desirable in this assay since a compound with a lower EC50 value will be a better agonist in PBMCs. […] 7. Other Compound Assay Standards An alternative measure of the efficacy of compounds of the invention for treatment of osteoporosis is a numerical ratio calculated as follows: • Dose Threshold needed to induce hypercalcemia • divided by • Dose Threshold needed for bone efficacy An alternative measure of the efficacy of compounds of the invention for treatment of psoriasis is a numerical ratio calculated as follows: • Dose Threshold needed to induce hypercalcemia • divided by • Dose Threshold needed to induce keratinocyte proliferation For the above ratios, Dose Thresholds are determined from dose response curve data. 8. The CaT1 (Calcium Transport Protein 1) Assay The CaT1 Assay is an indicator for the undesirable condition of hypercalcemia. The higher the EC50 values for a compound the less calcemic it will be in vivo. […] Preferred assay results are greater than 1000 nM. Details of the Assay Methods: (1) Materials and Method for RXR-VDR Heterodimerization Assay: Transfection Method:
# (6) Materials and Method for Human IL-10 Induction Assay:
# Isolation of peripheral blood mononuclear cells (PBMCs): • A. Collect 50 ml of human blood and dilute with media, RPMI-1640. • B. Prepare sterile tubes with ficol. • C. Add diluted blood to tubes. • D. Centrifuge. • E. Discard the top layer and collect the cells from middle layer. • F. Divide all cells into four tubes and add media. • G. Centrifuge. • H. Aspirate off media and resuspend. • I. Collect all cells • J. Centrifuge. at 1200 rpm for 10 minutes. • K. Resuspend in RPMI-1640 with 2% FBS and count cells
# Stimulation of PBMC: • L. Prepare TPA in DMSO. • M. Dissolve PHA in water. • N. Plate TPA/PHA treated PBMCs in well plates. • O. Incubate.
# Treatment: • P. Prepare all compound dilutions in plain RPMI-1640 media. • Q. Add diluted compound. • R. Incubate.
# Sample Collection and Assay: • S. Remove all the cells by centrifugation and assay the supernatant for IL-10 by immunoassay. • 1) T. Perform IL-10 assay using anti-human IL-10 antibody coated beads, as described by the manufacturer (Linco Research Inc., St. Charles, Mo.).
# [2] = system: KERtr cells; assay: Keratinocyte proliferation assay; assay type: cell-based; details: Homo sapiens, 72 hr, BrdU incorporation, read-out: Kera. Prolif. IC50
# Description: 5. The Keratinocyte Proliferation Assay
# This Assay is indicative for the treatment of psoriasis.
# (5) The Keratinocyte Proliferation Assay:
# KERtr cells (Human skin keratinocyte transformed with a retrovirus vector, obtained from ATCC) were plated in 96-well flat-bottomed plates (3000 cells/well) in 100 µl keratinocyte serum free medium supplemented with bovine pituitary extract in the absence of EGF (Life Technologies, Rockville, Md.) and incubated at 37° C. for two days. The cells were treated with various concentrations of VDR ligands (ten-fold serial dilution from 10,000 nM to 0.1 nM in triplicate), dissolved in 100 µl keratinocyte serum free medium supplemented with bovine pituitary extract in the absence of EGF and incubated at 37° C. for 72 hr. BrdU (5-bromo-2′-deoxyuridine) incorporation was analyzed as a measure of DNA replication (Cell proliferation ELISA kit, Roche Diagnostics, Indianapolis, Ind.) and absorbance was measured at 405 nm. Potency values (IC50) values were determined as the concentration (nM) of compound that elicited a half-maximal response.
SMILES,IC50 [1] [nM],IC50 [2] [nM]
"CCC(CC)(c1ccc(OCC(O)(C(C)C)C(C)C)c(C)c1)c1ccc(C(=O)NCC(=O)O)c(C)c1 [Ex. 4, (4-{1-Ethyl-1-[4-(2-hydroxy-2-isopropyl-3-methyl-butoxy)-3-methyl-phenyl]-propyl}-2-methyl-benzoylamino)-acetic acid]",477,–
"CCC(O)(CC)COc1ccc(C(CC)(CC)c2ccc(C(=O)NCC(=O)O)c(C)c2)cc1C [Ex. 3, (4-{1-ethyl-1-[4-(2-ethyl-2-hydroxy-butoxy)-3-methyl-phenyl]-propyl}-2-methyl-benzoylamino)-acetic acid]",718,121
